The source of these data is US11739098B2 (BRISTOL-MYERS SQUIBB COMPANY, priority 2017, dated 2023).

What all share (assay type): cell-based
One test has as its target T1, human TLR7 (Homo sapiens, UniProt Q9NYK1).
T1 construct: host or cells: HEK-Blue cells (HEK293-derived reporter line)
T1 sequence (Q9NYK1 27-1049): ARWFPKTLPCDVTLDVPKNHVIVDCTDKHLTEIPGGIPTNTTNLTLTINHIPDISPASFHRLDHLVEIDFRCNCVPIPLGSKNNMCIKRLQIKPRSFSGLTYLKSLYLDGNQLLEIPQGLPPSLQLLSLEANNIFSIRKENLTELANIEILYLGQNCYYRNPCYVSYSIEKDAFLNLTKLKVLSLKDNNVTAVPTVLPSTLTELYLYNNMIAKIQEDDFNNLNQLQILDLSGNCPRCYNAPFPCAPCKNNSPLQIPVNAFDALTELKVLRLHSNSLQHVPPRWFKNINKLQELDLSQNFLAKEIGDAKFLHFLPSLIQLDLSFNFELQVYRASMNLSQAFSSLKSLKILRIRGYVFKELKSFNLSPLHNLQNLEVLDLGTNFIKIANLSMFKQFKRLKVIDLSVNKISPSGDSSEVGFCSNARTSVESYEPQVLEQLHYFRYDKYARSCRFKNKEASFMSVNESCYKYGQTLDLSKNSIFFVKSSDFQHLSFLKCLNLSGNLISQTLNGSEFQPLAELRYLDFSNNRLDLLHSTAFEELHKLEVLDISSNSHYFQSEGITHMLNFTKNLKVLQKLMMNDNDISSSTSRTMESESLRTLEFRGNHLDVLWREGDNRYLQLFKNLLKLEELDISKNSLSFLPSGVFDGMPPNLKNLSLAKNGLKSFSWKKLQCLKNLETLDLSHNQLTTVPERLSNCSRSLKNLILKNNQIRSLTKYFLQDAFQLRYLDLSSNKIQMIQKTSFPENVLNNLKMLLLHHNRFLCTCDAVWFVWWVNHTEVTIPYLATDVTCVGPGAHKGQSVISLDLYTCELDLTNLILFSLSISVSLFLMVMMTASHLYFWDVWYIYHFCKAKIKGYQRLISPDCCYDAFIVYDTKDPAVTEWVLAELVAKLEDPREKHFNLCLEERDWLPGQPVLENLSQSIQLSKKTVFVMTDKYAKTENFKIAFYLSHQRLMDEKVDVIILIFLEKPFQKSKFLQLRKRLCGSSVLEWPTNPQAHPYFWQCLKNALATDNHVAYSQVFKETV
In words: TLR7 inhibition reporter assay (HEK-Blue cells, SEAP reporter, gardiquimod stimulation). Particulars: HEK-Blue cells overexpressing human TLR7, SEAP reporter, gardiquimod 7.5 μM. The essentials: (§1)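 Agonists (final): TLR7 gardiquimod 7.5 μM; TLR8 R848 15.9 μM; TLR9 ODN2006 5 nM. HEK-Blue reporter cells, 30 min RT compound pre-incubation, 0.05 nM–50 μM dose range, 22 h at 37 °C, colorimetric SEAP detection medium. % inhibition relative to agonist+DMSO and known-inhibitor wells.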
In general terms: A reporter such as luciferase makes a cellular process visible.

Another test concerns the target T2, human TLR8 (Homo sapiens, UniProt Q9NR97).
T2 construct: host or cells: HEK-Blue cells (HEK293-derived reporter line)
T2 sequence (Q9NR97 27-1041): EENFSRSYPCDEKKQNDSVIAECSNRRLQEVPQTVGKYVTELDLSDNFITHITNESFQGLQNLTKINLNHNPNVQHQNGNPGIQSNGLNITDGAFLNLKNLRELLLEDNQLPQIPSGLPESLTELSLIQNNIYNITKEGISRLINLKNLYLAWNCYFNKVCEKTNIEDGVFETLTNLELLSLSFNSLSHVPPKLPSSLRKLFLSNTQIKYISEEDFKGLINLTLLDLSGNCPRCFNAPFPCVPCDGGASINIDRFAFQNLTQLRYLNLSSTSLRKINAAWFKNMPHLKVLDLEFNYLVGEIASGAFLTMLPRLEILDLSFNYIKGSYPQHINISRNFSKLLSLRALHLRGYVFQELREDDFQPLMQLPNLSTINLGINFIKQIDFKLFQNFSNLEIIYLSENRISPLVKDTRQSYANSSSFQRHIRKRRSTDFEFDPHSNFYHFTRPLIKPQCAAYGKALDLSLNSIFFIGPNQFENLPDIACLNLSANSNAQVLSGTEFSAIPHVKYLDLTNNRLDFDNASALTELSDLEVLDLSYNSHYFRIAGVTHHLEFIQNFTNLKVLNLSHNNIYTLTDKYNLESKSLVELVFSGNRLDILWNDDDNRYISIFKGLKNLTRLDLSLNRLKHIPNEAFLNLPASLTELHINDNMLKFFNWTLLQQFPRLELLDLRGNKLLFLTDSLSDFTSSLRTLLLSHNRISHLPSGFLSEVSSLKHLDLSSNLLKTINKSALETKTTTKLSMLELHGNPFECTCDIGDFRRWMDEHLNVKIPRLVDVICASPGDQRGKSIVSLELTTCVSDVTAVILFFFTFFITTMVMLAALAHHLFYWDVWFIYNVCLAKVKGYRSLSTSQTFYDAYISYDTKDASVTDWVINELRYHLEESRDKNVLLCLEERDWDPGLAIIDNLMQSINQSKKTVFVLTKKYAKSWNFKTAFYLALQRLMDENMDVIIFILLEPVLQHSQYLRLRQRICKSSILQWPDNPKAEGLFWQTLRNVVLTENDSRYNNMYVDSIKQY
The test is described as follows: TLR8 inhibition reporter assay (HEK-Blue cells, SEAP reporter, R848 stimulation). Conditions: HEK-Blue cells overexpressing human TLR8, SEAP reporter, R848 15.9 μM. The procedure, abridged:
as §1

The next test addresses T3, human TLR9 (Homo sapiens, UniProt Q9NR96).
T3 construct: host or cells: HEK-Blue cells (HEK293-derived reporter line)
T3 sequence (Q9NR96 26-1032): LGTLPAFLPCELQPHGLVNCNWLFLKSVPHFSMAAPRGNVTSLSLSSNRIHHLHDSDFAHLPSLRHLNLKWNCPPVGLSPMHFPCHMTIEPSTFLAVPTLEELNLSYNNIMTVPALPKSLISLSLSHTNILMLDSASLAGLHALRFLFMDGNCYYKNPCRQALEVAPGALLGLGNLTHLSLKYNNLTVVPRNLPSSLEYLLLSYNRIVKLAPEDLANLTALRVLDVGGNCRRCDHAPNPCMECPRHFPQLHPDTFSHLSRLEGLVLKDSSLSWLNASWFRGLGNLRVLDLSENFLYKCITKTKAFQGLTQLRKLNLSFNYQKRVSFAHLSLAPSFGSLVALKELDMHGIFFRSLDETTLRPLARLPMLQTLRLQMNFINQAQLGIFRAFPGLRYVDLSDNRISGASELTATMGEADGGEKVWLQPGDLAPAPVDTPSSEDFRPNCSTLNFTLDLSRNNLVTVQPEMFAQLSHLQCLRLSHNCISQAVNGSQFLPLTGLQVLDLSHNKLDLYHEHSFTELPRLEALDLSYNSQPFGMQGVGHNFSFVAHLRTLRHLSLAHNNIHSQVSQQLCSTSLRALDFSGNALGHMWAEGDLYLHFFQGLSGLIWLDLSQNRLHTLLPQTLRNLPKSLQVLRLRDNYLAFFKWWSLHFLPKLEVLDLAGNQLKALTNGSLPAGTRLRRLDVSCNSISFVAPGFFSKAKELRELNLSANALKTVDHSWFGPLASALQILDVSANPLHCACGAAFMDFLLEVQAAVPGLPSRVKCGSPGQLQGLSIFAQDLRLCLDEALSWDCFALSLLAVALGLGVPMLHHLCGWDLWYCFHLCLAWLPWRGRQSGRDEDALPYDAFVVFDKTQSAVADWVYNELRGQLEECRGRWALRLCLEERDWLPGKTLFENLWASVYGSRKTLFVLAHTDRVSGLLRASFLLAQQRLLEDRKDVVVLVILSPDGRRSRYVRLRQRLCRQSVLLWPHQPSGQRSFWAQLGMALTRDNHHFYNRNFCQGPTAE
The test is described as follows: TLR9 inhibition reporter assay (HEK-Blue cells, SEAP reporter, ODN2006 stimulation). Particulars: HEK-Blue cells overexpressing human TLR9, SEAP reporter, ODN2006 5 nM. The procedure, abridged:
as §1

As a reminder, the IC50 is the concentration that gives 50% inhibition. Higher therefore signals lower potency. Turning to `Cc1cc(-c2[nH]c3ccc(C4CCN(CC(=O)N(C)C)CC4)cc3c2C(C)C)cc2ncnn12` [Example 324, 2-(4-(3-isopropyl-2-(5-methyl-[1,2,4]triazolo[1,5-a]pyridin-7-yl)-1H-indol-5-yl)piperidin-1-yl)-N,N-dimethylacetamide], the figures for the IC50 on human TLR7, against human TLR8 and on human TLR9 were less than 100 nM, less than 100 nM and 1000 to 50000 nM, respectively.
On to `CNC(=O)CN1CCC(c2ccc3[nH]c(-c4cc(C)n5ncnc5c4)c(C(C)C)c3c2)CC1` [Example 325, 2-(4-(3-isopropyl-2-(5-methyl-[1,2,4]triazolo [1,5-a]pyridin-7-yl)-1H-indol-5-yl)piperidin-1-yl)-N-methylacetamide], for which the IC50 was less than 100 nM on human TLR7, less than 100 nM against human TLR8 and 1000 to 50000 nM against human TLR9.
`Cc1nc2cc(-c3[nH]c4ccc(C5CCN(CC(=O)N(C)C)CC5)cc4c3C(C)C)ccn2n1` [Example 326, 2-(4-(3-isopropyl-2-(2-methyl-[1,2,4]triazolo[1,5-a]pyridin-7-yl)-1H-indol-5-yl)piperidin-1-yl)-N,N-dimethylacetamide]: the IC50 on human TLR7 was less than 100 nM; at human TLR8, 100 to 1000 nM; against human TLR9 it was 1000 to 50000 nM.
As for `Cc1cc(-c2[nH]c3ccc(C4CCN(CC(=O)N(C)C)CC4)cc3c2C(C)C)c2ccccc2n1` [Example 327, 2-(4-(3-isopropyl-2-(2-methylquinolin-4-yl)-1H-indol-5-yl)piperidin-1-yl)-N,N-dimethylacetamide], the IC50 is less than 100 nM against human TLR7, less than 100 nM against human TLR8 and 1000 to 50000 nM against human TLR9.
For `CNC(=O)CN1CCC(c2ccc3[nH]c(-c4cc(C)nc5ccccc45)c(C(C)C)c3c2)CC1` [Example 328, 2-(4-(3-isopropyl-2-(2-methylquinolin-4-yl)-1H-indol-5-yl)piperidin-1-yl)-N-methylacetamide], the IC50 against human TLR7 is less than 100 nM; against human TLR8 it was less than 100 nM; against human TLR9 it was 1000 to 50000 nM.
Turning to `CC(C)c1c(-c2cc(CO)c3nccn3c2)[nH]c2ccc(C3CCN(CC(=O)N(C)C)CC3)cc12` [Example 329, 2-(4-(2-(8-(hydroxymethyl)imidazo [1,2-a]pyridin-6-yl)-3-isopropyl-1H-indol-5-yl)piperidin-1-yl)-N,N-dimethylacetamide], the IC50 against human TLR7 is less than 100 nM; against human TLR8, less than 100 nM; against human TLR9, 100 to 1000 nM.
Take `CNC(=O)CN1CCC(c2ccc3[nH]c(-c4ccn5nc(C)nc5c4)c(C(C)C)c3c2)CC1` [Example 331, 2-(4-(3-isopropyl-2-(2-methyl-[1,2,4]triazolo[1,5-a]pyridin-7-yl)-1H-indol-5-yl)piperidin-1-yl)-N-methylacetamide]: the IC50 at human TLR7 was less than 100 nM; against human TLR8 it was 1000 to 50000 nM; against human TLR9, 1000 to 50000 nM.
`CNC(=O)CN1CCC(c2ccc3[nH]c(-c4cc(OC)n5ncnc5c4)c(C(C)C)c3c2)CC1` [Example 332, 2-(4-(3-isopropyl-2-(5-methoxy-[1,2,4]triazolo[1,5-a]pyridin-7-yl)-1H-indol-5-yl)piperidin-1-yl)-N-methylacetamide]: the IC50 at human TLR7 was less than 100 nM; on human TLR8 it was less than 100 nM; on human TLR9, 100 to 1000 nM.
As to `COc1cc(-c2[nH]c3ccc(C4CCN(CC(=O)N(C)C)CC4)cc3c2C(C)C)cc2ncnn12` [Example 333, 2-(4-(3-isopropyl-2-(5-methoxy-[1,2,4]triazolo[1,5-a]pyridin-7-yl)-1H-indol-5-yl)piperidin-1-yl)-N,N-dimethylacetamide], the results for the IC50 against human TLR7, at human TLR8 and at human TLR9 were less than 100 nM, less than 100 nM and 1000 to 50000 nM, respectively.
With `COc1cc(-c2[nH]c3ccc(C4CCN(CC(=O)N(C)C)CC4)cc3c2C(C)C)cc2nc(C)cn12` [Example 334, 2-(4-(3-isopropyl-2-(5-methoxy-2-methylimidazo[1,2-a]pyridin-7-yl)-1H-indol-5-yl)piperidin-1-yl)-N,N-dimethylacetamide], the IC50 against human TLR7, at human TLR8 and against human TLR9 was 100 to 1000 nM each time.
Turning to `CNC(=O)CN1CCC(c2ccc3[nH]c(-c4cc(OC)n5cc(C)nc5c4)c(C(C)C)c3c2)CC1` [Example 335, 2-(4-(3-isopropyl-2-(5-methoxy-2-methylimidazo[1,2-a]pyridin-7-yl)-1H-indol-5-yl)piperidin-1-yl)-N-methylacetamide], the IC50 against human TLR7 lay in the range of 100 to 1000 nM; on human TLR8, 1000 to 50000 nM; at human TLR9 it was 1000 to 50000 nM.
Consider `CNC(=O)CN1CCC(c2ccc3[nH]c(-c4cc(C)c5oc(=O)n(C)c5c4)c(C(C)C)c3c2)CC1` [Example 336, 2-(4-(2-(3,7-dimethyl-2-oxo-2,3-dihydrobenzo[d]oxazol-5-yl)-3-isopropyl-1H-indol-5-yl)piperidin-1-yl)-N-methylacetamide], for which the IC50 against human TLR7 was less than 100 nM; at human TLR8, 100 to 1000 nM; at human TLR9 it was 1000 to 50000 nM.
